This note sets out measurements from ChEMBL document CHEMBL1153180, “Discovery and initial optimization of 5,5'-disubstituted aminohydantoins as potent beta-secretase (BACE1) inhibitors” (Bioorg Med Chem Lett, 2010).

In brackets after ≈: the same amount, converted by molar mass.

For orientation: IC50 means the concentration needed to halve the response being measured. Usually solubility stands for the concentration that dissolves in the medium under given conditions. A high value points to a readily soluble substance. What is called inhibition is the share of the control response that was lost under treatment. Lower therefore signals little suppression. For orientation: EC50 means the concentration that produces a half-maximal response.

Data set [1] addresses T1, Beta-secretase 1 (Homo sapiens, UniProt P56817). Kind of data set: Inhibition of human BACE1 by FRET assay.
For the next data set, the target named is T2, Beta-secretase 2 (Homo sapiens, UniProt Q9Y5Z0).
T2 sequence (Q9Y5Z0 whole entry): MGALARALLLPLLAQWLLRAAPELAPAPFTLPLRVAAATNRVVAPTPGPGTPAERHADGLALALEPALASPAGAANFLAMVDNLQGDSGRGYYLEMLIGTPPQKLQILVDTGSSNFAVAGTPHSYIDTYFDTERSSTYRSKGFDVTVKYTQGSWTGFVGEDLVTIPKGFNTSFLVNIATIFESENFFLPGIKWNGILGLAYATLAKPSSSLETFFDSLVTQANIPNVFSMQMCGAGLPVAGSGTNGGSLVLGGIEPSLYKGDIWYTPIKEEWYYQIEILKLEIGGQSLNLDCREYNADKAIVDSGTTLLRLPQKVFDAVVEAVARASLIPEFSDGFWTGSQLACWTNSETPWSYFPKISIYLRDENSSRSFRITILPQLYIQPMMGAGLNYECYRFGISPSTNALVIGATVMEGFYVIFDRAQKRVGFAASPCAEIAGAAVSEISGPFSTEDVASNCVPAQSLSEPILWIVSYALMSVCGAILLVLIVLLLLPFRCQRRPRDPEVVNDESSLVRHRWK
Kind of data set: Inhibition of human BACE2 by FRET assay.

A short description of data set [2]: Solubility at pH 7.4. Type of data set: physicochemical. Particulars: buffer.
Data set [3] has as its target T3, Cathepsin D (Homo sapiens, UniProt P07339). As to the kind of experiment: Inhibition of human cathepsin D by FRET assay.
In data set [4] the target is T3, Cathepsin D. As to the kind of experiment: Inhibition of human cathepsin D at 100 uM by FRET assay.
The target in data set [5] is Beta-secretase 1 (Cricetulus griseus, UniProt G3IAK4). As to the kind of experiment: Inhibition of human recombinant APP expressed in CHO-K1 cells assessed as reduction of amyloid beta level by ELISA. Type of data set: cell-based. (In general: In an ELISA, binding on a coated surface is turned into a signal by an enzyme label.)
Beta-secretase 1 (Cricetulus griseus, UniProt G3IAK4), sequence (G3IAK4 whole entry): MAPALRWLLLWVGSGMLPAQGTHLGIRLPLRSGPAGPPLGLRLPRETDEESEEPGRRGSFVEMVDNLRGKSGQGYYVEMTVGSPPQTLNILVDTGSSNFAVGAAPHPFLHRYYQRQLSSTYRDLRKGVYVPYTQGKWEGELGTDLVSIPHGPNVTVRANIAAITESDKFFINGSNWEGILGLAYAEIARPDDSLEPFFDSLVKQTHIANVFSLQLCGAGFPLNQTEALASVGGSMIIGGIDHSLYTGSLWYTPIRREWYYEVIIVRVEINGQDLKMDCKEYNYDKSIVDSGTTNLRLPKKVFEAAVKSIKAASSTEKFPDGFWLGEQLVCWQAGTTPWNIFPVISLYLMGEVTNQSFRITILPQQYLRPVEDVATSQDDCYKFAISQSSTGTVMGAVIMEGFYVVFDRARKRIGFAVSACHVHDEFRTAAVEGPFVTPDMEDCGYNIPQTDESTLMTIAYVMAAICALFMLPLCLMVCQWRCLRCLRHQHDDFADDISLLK
A short description of data set [6]: Membrane permeability by PAMPA-BBB assay. Type of data set: ADME. Particulars: read-out: permeability. (In PAMPA a lipid-coated filter parts donor from acceptor wells.)
Data set [7] can be described thus: Membrane permeability by PAMPA. Particulars: read-out: permeability. It is filed as ADME.
In data set [8] the target is T1, Beta-secretase 1. Kind of data set: Inhibition of human BACE1 at 5 uM by FRET assay.

T1 sequence (P56817 whole entry): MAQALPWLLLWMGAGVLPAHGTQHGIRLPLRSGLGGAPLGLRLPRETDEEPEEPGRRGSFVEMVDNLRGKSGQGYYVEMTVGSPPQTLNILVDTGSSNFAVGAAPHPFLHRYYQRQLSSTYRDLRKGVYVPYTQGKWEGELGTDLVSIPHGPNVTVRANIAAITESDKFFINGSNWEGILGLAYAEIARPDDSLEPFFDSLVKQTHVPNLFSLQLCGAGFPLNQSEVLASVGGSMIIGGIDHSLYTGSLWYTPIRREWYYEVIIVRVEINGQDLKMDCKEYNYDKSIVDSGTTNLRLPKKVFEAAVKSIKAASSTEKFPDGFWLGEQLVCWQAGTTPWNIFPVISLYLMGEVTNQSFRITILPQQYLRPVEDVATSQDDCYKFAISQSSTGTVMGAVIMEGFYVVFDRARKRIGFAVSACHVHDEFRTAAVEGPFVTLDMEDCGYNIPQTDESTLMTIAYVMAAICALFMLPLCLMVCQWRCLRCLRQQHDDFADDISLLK
T3 sequence (P07339 65-162 limits assumed): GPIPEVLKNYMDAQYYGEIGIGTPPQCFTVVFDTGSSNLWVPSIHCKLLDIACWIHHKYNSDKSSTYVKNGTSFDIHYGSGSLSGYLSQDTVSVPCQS
T3 sequence (P07339 169-412 limits assumed): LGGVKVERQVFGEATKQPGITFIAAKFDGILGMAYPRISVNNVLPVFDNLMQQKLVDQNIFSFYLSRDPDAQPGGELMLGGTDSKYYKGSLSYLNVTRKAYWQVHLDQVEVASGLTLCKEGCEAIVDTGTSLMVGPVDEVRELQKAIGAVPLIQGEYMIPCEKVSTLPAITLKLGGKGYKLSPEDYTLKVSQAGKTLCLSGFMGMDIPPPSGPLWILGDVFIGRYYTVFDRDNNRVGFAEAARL

In the case of `CN1C(=O)C(c2cccc(NC(=O)c3ccco3)c2)(C2CCCCC2)N=C1N` (stereo not drawn), the IC50 at Beta-secretase 1 [1] worked out at 100 nM; at Beta-secretase 2 it was 20 nM.

In the case of `NC1=NC(c2ccccc2)(C2CCCCC2)C(=O)N1CC1CCCO1` (stereo not drawn), the IC50 is 1040 nM at Beta-secretase 1 [1] and 170 nM against Beta-secretase 2.

`CN1C(=O)C(c2ccccc2)(C2CCCCC2)N=C1N` (stereo not drawn): the IC50 at Beta-secretase 1 [1] stood at 990 nM; on Cathepsin D [3], 24000 nM; against Beta-secretase 2, 510 nM. In data set [2], the solubility was above 100 µg/mL. The compound further displayed an inhibition on Cathepsin D [4] of 38%. At Beta-secretase 1 [5], the concentration giving a half-maximal response (EC50) came to 810 nM. For the same compound, the Papp in data set [6] worked out at 12.8 ×10⁻⁶ cm/s; in data set [7], 7.2 ×10⁻⁶ cm/s.

For `COCCC(=O)Nc1cccc(C2(C3CCCCC3)N=C(N)N(C)C2=O)c1` (stereo not drawn), the IC50 at Beta-secretase 1 [1] stood at 7860 nM; on Beta-secretase 2, 1850 nM.

On to `NC1=NC(c2ccccc2)(c2ccccc2)C2=NCCCN12`, for which, in data set [2], the solubility came to 55 µg/mL (≈ 189 µM). The same compound had an inhibition on Cathepsin D [4] of 2%. Also, the EC50 on Beta-secretase 1 [5] turned out to be 16000 nM. The Papp in data set [6] came to 8.6 ×10⁻⁶ cm/s; in data set [7] it was 1 ×10⁻⁶ cm/s.

For `CN1C(=O)C(C2CCCCC2)(C2CCCCC2)N=C1N`, the IC50 against Beta-secretase 1 [1] was 1080 nM; at Beta-secretase 2 it was 510 nM. The solubility in data set [2] was above 100 µg/mL. This compound came in with an inhibition on Cathepsin D [4] of 33%. On Beta-secretase 1 [5], the EC50 came out at 1030 nM. The Papp was 7.7 ×10⁻⁶ cm/s in data set [6] and 2.9 ×10⁻⁶ cm/s in [7].

For the compound `NC1=NC(c2ccccc2)(C2CCCCC2)C(=O)N1Cc1cc(F)cc(F)c1` (stereo not drawn), the IC50 on Beta-secretase 1 [1] was 1080 nM; against Beta-secretase 2, 410 nM.

On to `NC1=NC(c2ccccc2)(C2CCCCC2)C(=O)N1Cc1ccccc1` (stereo not drawn), for which the half-maximal inhibitory concentration (IC50) at Beta-secretase 1 [1] is 1240 nM; at Beta-secretase 2, 570 nM.

Regarding `CCCCCCN1C(=O)C(c2ccccc2)(C2CCCCC2)N=C1N` (stereo not drawn), the IC50 against Beta-secretase 1 [1] was 1390 nM; on Beta-secretase 2, 270 nM.

Regarding `COc1cccc(C(=O)Nc2cccc(C3(C4CCCCC4)N=C(N)N(C)C3=O)c2)c1` (stereo not drawn), the IC50 against Beta-secretase 1 [1] stood at 1360 nM; against Beta-secretase 2, 490 nM.

For the compound `CN1C(=O)C(c2cccc(NC(=O)c3cccn3C)c2)(C2CCCCC2)N=C1N` (stereo not drawn), the IC50 against Beta-secretase 2 was 180 nM.

In turn, `CN1C(=O)C(c2ccccc2)(c2ccccc2)N=C1N` registered a solubility in [2] above 100 µg/mL. At Cathepsin D [4], this compound registered an inhibition of 34%. Besides, at Beta-secretase 1 [5], the EC50 came out at 4170 nM. For the same compound, the Papp in data set [6] turned out to be 11.1 ×10⁻⁶ cm/s; in data set [7], 3 ×10⁻⁶ cm/s. Besides, the IC50 against Beta-secretase 2 worked out at 770 nM.

For `CCCC(=O)Nc1cccc(C2(C3CCCCC3)N=C(N)N(C)C2=O)c1` (stereo not drawn), the figures for the IC50 on Beta-secretase 1 [1] and against Beta-secretase 2 were 2850 nM and 490 nM, respectively.

Take `NC1=NC(c2ccccc2)(C2CCCCC2)C(=O)N1C[C@H]1CC[C@H](C(=O)O)CC1` (stereo partly drawn): the values for the IC50 on Beta-secretase 1 [1] and at Beta-secretase 2 were 390 nM and 120 nM, respectively.

As to `CN1C(=O)C(c2cccc(NC(=O)c3ccc4c(c3)OCO4)c2)(C2CCCCC2)N=C1N` (stereo not drawn), the values for the IC50 against Beta-secretase 1 [1] and against Beta-secretase 2 were 380 nM and 1150 nM, respectively.

Turning to `NC1=NC(c2ccccc2)(C2CCCCC2)C(=O)N1CCCO` (stereo not drawn), the inhibition against Beta-secretase 1 [8] was 56%. Moreover, the IC50 on Beta-secretase 2 was 1650 nM.

In the case of `NC1=NC(c2ccccc2)(C2CCCCC2)C(=O)N1CCCCCC(=O)O` (stereo not drawn), the IC50 against Beta-secretase 1 [1] was found to be 950 nM; at Beta-secretase 2 it was 310 nM.

As for `COCC(=O)Nc1cccc(C2(C3CCCCC3)N=C(N)N(C)C2=O)c1` (stereo not drawn), on Beta-secretase 2, half-maximal inhibition (IC50) required 40 nM.

As for `Cc1ccoc1C(=O)Nc1cccc(C2(C3CCCCC3)N=C(N)N(C)C2=O)c1` (stereo not drawn), in data set [2], the concentration in solution (solubility) came to 41 µg/mL (≈ 104 µM). Moreover, the figures for the IC50 against Cathepsin D [3] and on Beta-secretase 2 were 17100 nM and 30 nM, respectively. In addition, the EC50 at Beta-secretase 1 [5] was 180 nM. Besides, the Papp in [6] was 13.7 ×10⁻⁶ cm/s; in [7], 1.4 ×10⁻⁶ cm/s.
